According to patent US20230372276A1, “METHODS FOR DELIVERING MEDIUM CHAIN TRIGLYCERIDES WITH CONTROLLED PHARMACOKINETIC, SAFETY AND TOLERABILITY PROFILES” (Cerecin Inc., priority 2020, published 2023):

Assays:
[1] = Ethnicity analysis of total ketone exposure, Chinese vs Caucasian (Study 2 parts combined); type: in vivo, human (healthy young male Caucasian and Asian volunteers); details: healthy participants
Experimental: The present example investigates the pharmacokinetics, safety and tolerability of tricaprilin in healthy young male Caucasian and Asian volunteers to understand and elucidate any differences between the two populations and any identify any ethnic sensitivities. In this example, data from several studies were analyzed to evaluate any ethnicity differences in safety and tolerability of tricaprilin. The analyzed studies included Caucasian and Asian (Chinese) subjects and several analyses were conducted to compare the effects in Caucasians vs Asian. Ethnic Chinese participants were defined as all four grandparents being Chinese. The level of total ketones were quantitated using a validated LC-MS/MS bioanalytical assay.
Methods: Study 1 was a food effect study of a spray dried formulation of tricaprilin (AC-SD-01), conducted in healthy young males. […] Both of these studies included Caucasian and Asian (Chinese) subjects and several analyses were conducted to compare the effects in Caucasians vs Chinese. To explore whether ethnicity affects total ketone body exposure after tricaprilin administration, the pharmacokinetic parameters AUC0-t and Cmax from Study 2 were examined and grouped by an individual's ethnicity (Chinese or Caucasian).

[2] = both, human, in vivo

- Exposure to total ketones, ethnic Chinese compared to Caucasians [1]: no different
- increase of geometric mean Cmax for AcAc [2]: 2.3 fold
- increase of geometric mean Cmax for total ketones [2]: 2.7 fold
- increase of geometric mean Cmax for βHB [2]: 2.9 fold
Compound: CCCCCCCC(=O)OCC(COC(=O)CCCCCCC)OC(=O)CCCCCCC [tricaprilin]
